Our source for the log 1/Ki app values is ChEMBL document CHEMBL1121755, “Comparison of the inhibition of methotrexate-sensitive and -resistant Lactobacillus casei cell cultures with purified Lactobacillus casei dihydrofolate reductase by 4,6-diamino-1,2-dihydro-2,2-dimethyl-1-(3-substituted-phenyl)-s-triazines. Use of quantitative structure-activity relationships in …” (1981).

For the test, the target named is Dihydrofolate reductase (Lactobacillus casei) (UniProt P00381). The conditions noted are these: Lacticaseibacillus casei.
Chain of Dihydrofolate reductase (Lactobacillus casei) (P00381 whole entry): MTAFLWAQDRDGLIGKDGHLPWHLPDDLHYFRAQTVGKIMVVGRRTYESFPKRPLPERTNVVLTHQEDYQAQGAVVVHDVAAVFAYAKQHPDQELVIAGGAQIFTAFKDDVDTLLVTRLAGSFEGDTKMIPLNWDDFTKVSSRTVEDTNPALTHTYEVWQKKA
Description: Inhibitory activity against Lactobacillus casei dihydrofolate reductase (DHFR)
Consider `CC1(C)N=C(N)N=C(N)N1c1cccc(CNc2cc(C(N)=O)cc(C(N)=O)c2)c1`, for which the log 1/Ki app amounted to 4.74. Next, `CC1(C)N=C(N)N=C(N)N1c1cccc(F)c1`: 3.29; `CC1(C)N=C(N)N=C(N)N1c1cccc(COc2cccc(Cl)c2)c1`: 5.41. Molecule `CC(=O)Nc1cccc(OCc2cccc(N3C(N)=NC(N)=NC3(C)C)c2)c1` had a log 1/Ki app of 5.45. `CC1(C)N=C(N)N=C(N)N1c1cccc(OCCOc2cccc(C(F)(F)F)c2)c1` displayed a log 1/Ki app of 4.1. Next, `CC(C)(C)c1cccc(N2C(N)=NC(N)=NC2(C)C)c1`: 3.2; `COc1cccc(OCc2cccc(N3C(N)=NC(N)=NC3(C)C)c2)c1`: 5.56; `CCCCCCCCCCCCCOc1cccc(N2C(N)=NC(N)=NC2(C)C)c1`: 4.81. Next, `CC(C)c1cccc(OCc2cccc(N3C(N)=NC(N)=NC3(C)C)c2)c1`: 5.41; `CCOC(=O)c1cccc(N2C(N)=NC(N)=NC2(C)C)c1`: 3.21. `CCCCCCCCCCCCCCOc1cccc(N2C(N)=NC(N)=NC2(C)C)c1` gave a log 1/Ki app of 4.5. `CC1(C)N=C(N)N=C(N)N1c1cccc(COc2cccc(C#N)c2)c1` came in with a log 1/Ki app of 5.31. Consider `CC1(C)N=C(N)N=C(N)N1c1cccc(OCc2ccccc2)c1`, for which the log 1/Ki app amounted to 4.2. In the case of `CCc1cccc(OCc2cccc(N3C(N)=NC(N)=NC3(C)C)c2)c1`, the log 1/Ki app worked out at 5.31. Turning to `CC1(C)N=C(N)N=C(N)N1c1cccc(OCc2ccc(Cl)c(Cl)c2)c1`, the log 1/Ki app worked out at 4.41. Molecule `CC1(C)N=C(N)N=C(N)N1c1cccc(I)c1` displayed a log 1/Ki app of 3.73. Molecule `Cc1cccc(N2C(N)=NC(N)=NC2(C)C)c1` registered a log 1/Ki app of 3.07.

Take `CCCCCCc1cccc(N2C(N)=NC(N)=NC2(C)C)c1`: the log 1/Ki app worked out at 4.96. In turn, `CC(C)(C)c1cccc(OCc2cccc(N3C(N)=NC(N)=NC3(C)C)c2)c1` returned a log 1/Ki app of 5.44. For the molecule `CCCCCCCCCCCCOc1cccc(N2C(N)=NC(N)=NC2(C)C)c1`, the log 1/Ki app turned out to be 4.63. `CC1(C)N=C(N)N=C(N)N1c1cccc(COc2cccc(NC(N)=O)c2)c1` had a log 1/Ki app of 5.36.

`CC1(C)N=C(N)N=C(N)N1c1cccc(OCCCCOc2ccccc2)c1` had a log 1/Ki app of 4.79.

`Cc1cccc(OCc2cccc(N3C(N)=NC(N)=NC3(C)C)c2)c1` registered a log 1/Ki app of 5.33. In turn, `CC1(C)N=C(N)N=C(N)N1c1cccc([N+](=O)[O-])c1` gave a log 1/Ki app of 3.56. Next, `CC1(C)N=C(N)N=C(N)N1c1cccc(S(=O)(=O)F)c1`: 3.21. Next, `CCCCCCCCCCCOc1cccc(N2C(N)=NC(N)=NC2(C)C)c1`: 4.54; `CC1(C)N=C(N)N=C(N)N1c1cccc(OCCOc2ccccc2)c1`: 3.74; `CC1(C)N=C(N)N=C(N)N1c1cccc(COc2cccc(NC(=N)S)c2)c1`: 4.36.

`CC1(C)N=C(N)N=C(N)N1c1cccc(Br)c1` registered a log 1/Ki app of 3.69. Next, `CC(=O)c1cccc(N2C(N)=NC(N)=NC2(C)C)c1`: 2.87; `CC1(C)N=C(N)N=C(N)N1c1cccc(COc2ccccc2)c1`: 5.44; `CCCCOc1cccc(N2C(N)=NC(N)=NC2(C)C)c1`: 4.2.

As for `CC1(C)N=C(N)N=C(N)N1c1cccc(OCCCCOc2cccc(C(F)(F)F)c2)c1`, the log 1/Ki app was 4.79. `CCCCCCCCCOc1cccc(N2C(N)=NC(N)=NC2(C)C)c1`: the log 1/Ki app is 4.71. As to `CC1(C)N=C(N)N=C(N)N1c1cccc(COc2cccc(CO)c2)c1`, the log 1/Ki app came out at 5.45.
